Experimental data: ChEMBL document CHEMBL1141161, “Structure of aldehyde reductase holoenzyme in complex with the potent aldose reductase inhibitor fidarestat: implications for inhibitor binding and selectivity” (J Med Chem, 2005)

Target: T1, Aldo-keto reductase family 1 member A1 (Sus scrofa, UniProt P50578)
T1 sequence (P50578 whole entry): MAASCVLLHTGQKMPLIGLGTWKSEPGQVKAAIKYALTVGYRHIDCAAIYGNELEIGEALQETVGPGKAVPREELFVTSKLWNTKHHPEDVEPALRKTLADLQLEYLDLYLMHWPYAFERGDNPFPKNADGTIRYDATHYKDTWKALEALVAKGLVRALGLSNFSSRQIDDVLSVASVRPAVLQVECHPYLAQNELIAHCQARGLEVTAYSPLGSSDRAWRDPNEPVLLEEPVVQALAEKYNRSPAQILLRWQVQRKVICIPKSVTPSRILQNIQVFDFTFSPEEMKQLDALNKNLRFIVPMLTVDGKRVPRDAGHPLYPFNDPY
Test: Inhibitory concentration against porcine ALR1 Aldehyde reductase using DL-glyceraldehyde

Row | Structure (SMILES) | IC50
1 | NC(=O)[C@H]1C[C@]2(NC(=O)NC2=O)c2cc(F)ccc2O1 | 17.8 µM
2 | NC(=O)[C@@H]1C[C@]2(NC(=O)NC2=O)c2cc(F)ccc2O1 | 2.5 µM
